Experimental data published in PMC7583830 (Molecules, 2020).
Entries after “also recorded” stand apart in the source; their conditions may differ. Where a SMILES comes first, the peptide text is derived from it. Where no end group is shown, it is not given here. [ ]: non-standard residue; d: D form. The star is where a group is joined. DOTA = O=C(O)CN1CCN(CC(=O)O)CCN(CC(=O)*)CCN(CC(=O)O)CC1; 1Nal = N[C@@H](Cc1cccc2ccccc12)C(=O)O; NMeNle = CCCC[C@H](NC)C(=O)O

Assays:
[1] = parameters: method as in doi:10.2174/1874471010902040304; conditions: kidney homogenate; labeled with indium-111; cited from earlier work
fresh human serum = conditions: 37 °C, up to 24 h
[2] = blood of BALB/c mice injected with [^177Lu]Lu-1; conditions: female BALB/c mice, up to 1 h p.i.
[3] = urine of BALB/c mice injected with [^177Lu]Lu-1; conditions: female BALB/c mice, up to 1 h p.i.
[4] = soluble phase extracted from liver homogenate of BALB/c mice injected with [^177Lu]Lu-1; conditions: female BALB/c mice, up to 1 h p.i.
[5] = soluble phase extracted from kidney homogenate of BALB/c mice injected with [^177Lu]Lu-1; conditions: female BALB/c mice, up to 1 h p.i.
[6] = test system: neprylisin-1 and neprylisin-2; assay: Incubation in vitro with neprylisin-1 and neprylisin-2; conditions: cited from earlier work
A431-CCK2R xenografts = conditions: mouse, in vivo; cited from earlier work
[7] = blood of patients injected with ^111In-labeled DOTA-MG11; conditions: up to 10 min after injection; cited from earlier work
[8] = parameters: method as in PMID 29896292; conditions: radiolabeled with different radiometals; cited from earlier work
[9] = Stability in fresh human serum (radio-HPLC); type: in vitro ADME; conditions: 24 h incubation, 37 °C
Procedure: In vitro stability studies for the characterization of the metabolic stability of the radiolabeled peptide analogs in human serum were carried out with [^177Lu]Lu-1, [^177Lu]Lu-M1, [^177Lu]Lu-M2, [^177Lu]Lu-M3 and [^177Lu]Lu-M4 (n = 2). Additional stability studies in rat liver and kidney homogenates were performed for [^177Lu]Lu-1 (n = 2). Tissue homogenates were prepared from dissected organs by homogenization for 1 min at RT (IKA-Werke, Staufen, Germany) in 20 mM HEPES buffer pH 7.3 (30% v/v). The radioligands were incubated in the different media at a concentration of 500 pmol/mL (corresponding to an activity of 6–11 MBq). After incubation at 37 °C at different time points for up to 24 h, a 100 µl sample was taken in duplicates and analyzed by HPLC. Samples obtained from human serum and rat homogenates were treated with ACN at a ratio of 1:1.5 (v/v) to precipitate proteins, centrifuged (14,000 rpm, 2 min, centrifuge 5424, Eppendorf AG, Germany) and diluted with water at a ratio of 1:1 (v/v). A 100 µl aliquot of this solution was injected into the radio HPLC system. The degradation of the radioligand was evaluated based on the radiochemical purity after radiolabeling and the percentage of intact radiopeptide observed during incubation in the different media.

[10] = Distribution coefficient (logD) in octanol/PBS; type: physicochemical; conditions: octanol/PBS pH 7.4; read-out: logD
Procedure: The mixture was vigorously vortexed at room temperature over a period of 15 min using a small shaker (MS3 Basic, IKA, Staufen, Germany) with speed of 1500 rpm.

[11] = Protein binding in human serum by size exclusion chromatography; type: in vitro ADME; conditions: 24 h incubation
Procedure: For protein binding assessment, the radiolabeled DOTA-peptides were incubated in fresh human serum at 37 °C (500 pmol/mL, n = 2). After 1, 4 and 24 h of incubation, two samples were taken for each time point and analyzed by Sephadex G-50 size-exclusion chromatography (GE Healthcare Illustra, Little Chalfont, UK). The percentage of protein binding was determined by measuring the column and the eluate with the gamma-counter.

[12] = Metabolic stability in vivo and radiometabolites (radio-HPLC of blood, urine, liver, kidney); parameters: species or system BALB/c mice
Procedure: Metabolic biodistribution studies were performed in accordance with the ethical standards of the institution and approved by the Austrian Ministry of Science (BMWFW-66.011/0072-V/3b/2019). These studies were carried out in 5- to 7-week-old female BALB/c mice (n = 3) injected with [^177Lu]Lu-1 via a lateral tail vein. To allow monitoring of the metabolites by radio-HPLC, mice were injected with 30 MBq corresponding to 0.8 nmol total peptide. The mice were euthanized by cervical dislocation after different time points of 10 min, 30 min and 1 h p.i. and the urine and a venous blood sample were collected at the time of sacrifice. Liver and kidneys were dissected and homogenized in 20 mM HEPES buffer pH 7.3 at a ratio of 1:1 (v/v) with an Ultra-Turrax T8 homogenizer (IKA-Werke, Staufen, Germany) for 1 min at RT. Before radio-HPLC analysis, the samples (except urine) were treated with ACN at a ratio of 1:1 (v/v) to precipitate proteins, centrifuged at 2000× g for 2 min and diluted with water at a ratio of 1:1 (v/v). For HPLC analysis of the samples, the analytical HPLC system described above with a flow rate of 1 mL/min was used together with the following optimized water/ACN/0.1% TFA gradient to allow a better separation of [^177Lu]Lu-1 and the different radiometabolites: 0–7 min 1–7% ACN, 7–8 min 7–10% ACN, 8–18 min 10–18% ACN, 18–20 min 18–32% ACN, 20–27 min 32% ACN, 27–37 min […], 37–40 min 80% ACN, 40–40.1 min 80–1% ACN, 40.1–45 min 1% ACN. Urine was measured with the low-sensitivity loop of the radiodetector. The remaining samples were analyzed with the high-sensitivity loop due to the lower radioactivity present in blood, liver and kidney homogenate. To quantify the percentage of intact [^177Lu]Lu-1 and [^177Lu]Lu-M1 showing some overlap in the radiochromatogram when using the high-sensitivity loop of the radiodetector, the two radiopeptides were co-injected at different known ratios to enable a more accurate separation and integration of the two peaks (see supporting Figure S4). Mice from the metabolic biodistribution studies were subjected to a further dissection of all remaining tissues (blood, lung, heart, femur, spleen, muscle, intestine, pancreas and stomach). All organs, also including liver and kidneys, were weighed, and their radioactivity was measured in the gamma counter together with a standard and the residual body. To quantify the uptake of radioactivity in liver and kidneys, a part of liver and kidney homogenate was measured in the gamma counter to extrapolate the radioactivity for the whole organ.

DOTA-DGlu-Ala-Tyr-Gly-Trp-Met-Asp-Phe-NH2 ({DOTA}-[dE]AYGWMDF-NH2; also: 111In complex) [DOTA-MG11, truncated MG analog, results quoted for the indium-111 labeled form]
time to complete degradation [1]: ≤ 10 min

DOTA-DGlu-Pro-Tyr-Gly-Trp-(N-Me)Nle-Asp-1Nal-NH2
not cleaved (fresh human serum): 96.2 ± 1.3% intact peptide after 24 h incubation | cleaved bond [2]: 1Nal-NH2, minor and Asp-1Nal, minor and (N-Me)Nle-Asp, minor and Gly-Trp, minor | not cleaved [2]: M8 not found in any of the tissues examined | cleaved bond [3]: 1Nal-NH2, minor and Asp-1Nal, major and (N-Me)Nle-Asp and Gly-Trp, major | not cleaved [3]: M8 not found in any of the tissues examined | cleaved bond [4]: 1Nal-NH2 and Asp-1Nal and (N-Me)Nle-Asp and Trp-(N-Me)Nle, minor and Gly-Trp and Tyr-Gly | not cleaved [4]: M8 not found in any of the tissues examined | cleaved bond [5]: 1Nal-NH2 and Asp-1Nal and (N-Me)Nle-Asp and Gly-Trp and Tyr-Gly and Pro-Tyr, minor, 60 min | not cleaved [5]: M8 not found in any of the tissues examined

DOTA-(DGlu)6-Ala-Tyr-Gly-Trp-Met-Asp-Phe-NH2
cleaved bond [6]: Asp-Phe

{DOTA}-[dE]PYGW
not cleaved (fresh human serum): 98.4 ± 0.01% after 24 h incubation

DOTA-(DGlu)6-Ala-Tyr-Gly-Trp-Met-Asp-Phe-NH2 (AYGWMDF; DOTA-(D-Glu)6 N-terminus, C-amide; radiolabel; printed: Ala-Tyr-Gly-Trp-Met-Asp-Phe-) [PP-F11]
tumor uptake (A431-CCK2R xenografts): ~ 6.7 % IA/g

DOTA-DGlu-Pro-Tyr-Gly-Trp-(N-Me)Nle-Asp
not cleaved (fresh human serum): 98.1 ± 0.3% after 24 h incubation

{DOTA}-[dE]AYGWMDF-NH2
fragment found [7]: DOTA-DGlu-Ala-Tyr, 10 min after injection | cleaved bond [6]: Asp-Phe; also recorded: Gly-Trp

DOTA-DGlu-Ala-Tyr-Gly-Trp-(N-Me)Nle-Asp-1Nal-NH2 [DOTA-MGS5]
cell uptake [8]: > 50% | tumor-to-kidney ratio (A431-CCK2R xenografts): 4–6

DOTA-(DGlu)6-Ala-Tyr-Gly-Trp-Nle-Asp-Phe-NH2
not cleaved [6]: seemed to be resistant against neprylisins

DOTA-(DGlu)6-Ala-Tyr-Gly-Trp-Nle-Asp-Phe-NH2 [PP-F11N]
tumor uptake (A431-CCK2R xenografts): 6.9 % IA/g

CCCC[C@@H](C(=O)N[C@@H](CC(=O)O)C(=O)N[C@@H](Cc1cccc2ccccc12)C(=O)O)N(C)C(=O)[C@H](Cc1c[nH]c2ccccc12)NC(=O)CNC(=O)[C@H](Cc1ccc(O)cc1)NC(=O)[C@@H]1CCCN1C(=O)[C@@H](CCC(=O)O)NC(=O)CN1CCN(CC(=O)O)CCN(CC(=O)O)CCN(CC(=O)O)CC1 [[^177Lu]Lu-M1, metal not drawn] ({DOTA}-[dE]PYGW[NMeNle]D[1Nal]-OH)
intact radiopeptide [9]: 89.1 ± 1.3% | intact radiopeptide ([9]; listed as radiolabeled M1): 89% | logD [10]: -4.07 ± 0.35 | fraction unbound [11]: 0.546 | percentage of intact radiopeptide / radiometabolite ([12]; blood, 30 min p.i., mice injected i.v. with [177Lu]Lu-1): 9.9% | percentage of intact radiopeptide / radiometabolite ([12]; blood, 60 min p.i., mice injected i.v. with [177Lu]Lu-1): 5.8% | amount of radiometabolite ([12]; blood, different time points up to 1 h p.i.): < 10% | percentage of intact radiopeptide / radiometabolite ([12]; kidney, 30 min p.i.): 2.5% | percentage of intact radiopeptide / radiometabolite ([12]; liver, 30 min p.i.): 4.8% | percentage of intact radiopeptide / radiometabolite ([12]; liver, 60 min p.i.): 4.6% | percentage of intact radiopeptide / radiometabolite ([12]; urine, 30 min p.i.): 1.4%
